Laboratory results from PubChem BioAssay AID248 (DTP/NCI, 2004).
Where “and” joins values, the source holds several entries; their conditions need not be identical. Equal entries are not always repeated. Inconclusive results and toxic doses are left out. Cut-off read from the data, not from the text of the source: active = T/C of 150% or more; inactive = T/C below 125%.

System: L1210 leukemia ip in BDF1 mice, survival T/C
Test: NCI In Vivo Anticancer Drug Screen. Data for tumor model L1210 Leukemia (intraperitoneal) in B6D2F1 (BDF1) mice
Conditions: endpoint: mean survival time, higher = longer survival
Outline: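 Ratio derived from survival: compound-dosed mice over vehicle-dosed mice, all bearing a transplantable tumor.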

[1] = dose: 50.0 mg/kg/injection, schedule: Q01DX001 (ip), vehicle: carboxymethylcellulose (CMC)
[2] = dose: 50.0 mg/kg/injection, schedule: Q01DX009 (ip), vehicle: saline
[3] = dose: 100.0 mg/kg/injection, schedule: Q01DX001 (ip), vehicle: carboxymethylcellulose (CMC)
[4] = dose: 100.0 mg/kg/injection, schedule: Q01DX009 (ip), vehicle: saline
[5] = dose: 100.0 mg/kg/injection, schedule: Q04DX003 (ip), vehicle: saline
[6] = dose: 200.0 mg/kg/injection, schedule: Q04DX003 (ip), vehicle: saline
[7] = dose: 100.0 mg/kg/injection, schedule: Q04DX003 (ip), vehicle: saline with Tween-80
[8] = dose: 200.0 mg/kg/injection, schedule: Q04DX003 (ip), vehicle: saline with Tween-80
[9] = dose: 400.0 mg/kg/injection, schedule: Q04DX003 (ip), vehicle: saline with Tween-80
[10] = dose: 100.0 mg/kg/injection, schedule: Q04DX002 (ip), vehicle: Klucel (hydroxypropylcellulose) (HPC)
[11] = dose: 200.0 mg/kg/injection, schedule: Q04DX002 (ip), vehicle: Klucel (hydroxypropylcellulose) (HPC)
[12] = dose: 400.0 mg/kg/injection, schedule: Q04DX002 (ip), vehicle: Klucel (hydroxypropylcellulose) (HPC)
[13] = dose: 100.0 mg/kg/injection, schedule: Q01DX001 (ip), vehicle: saline
[14] = dose: 200.0 mg/kg/injection, schedule: Q01DX001 (ip), vehicle: carboxymethylcellulose (CMC)
[15] = dose: 400.0 mg/kg/injection, schedule: Q01DX001 (ip), vehicle: carboxymethylcellulose (CMC)
[16] = dose: 200.0 mg/kg/injection, schedule: Q01DX001 (ip), vehicle: saline
[17] = dose: 400.0 mg/kg/injection, schedule: Q01DX001 (ip), vehicle: saline

Measured: T/C

Cc1[nH]c(=S)sc1C
inactive: [1] 100 % of control | [2] 97 % of control | dose: 50.0 mg/kg/injection, schedule: Q04DX003 (ip), vehicle: saline 92 % of control | [3] 88 % of control | [4] 97 % of control | [5] 101 % of control | [6] 88 % of control

NNC(=O)c1cc2c3ccccc3ncc2c2ccccc12
inactive: [7] 86 % of control | [8] 94 % of control | [9] 108 % of control

COC1OC(COC(c2ccccc2)(c2ccccc2)c2ccccc2)C(OC)C(OC(C)=O)C1OC(C)=O (stereo not given)
inactive: dose: 25.0 mg/kg/injection, schedule: Q04DX002 (ip), vehicle: Klucel (hydroxypropylcellulose) (HPC) 95 % of control | dose: 50.0 mg/kg/injection, schedule: Q04DX002 (ip), vehicle: Klucel (hydroxypropylcellulose) (HPC) 95 % of control | [10] 92 % of control | [11] 102 % of control | [12] 90 % of control

Cc1c(-[n+]2ccccc2)[nH]c2ccccc12
inactive: dose: 5.0 mg/kg/injection, schedule: Q01DX001 (ip), vehicle: saline 103 % of control | dose: 10.0 mg/kg/injection, schedule: Q01DX001 (ip), vehicle: saline 103 % of control | dose: 20.0 mg/kg/injection, schedule: Q01DX001 (ip), vehicle: saline 101 % of control | dose: 40.0 mg/kg/injection, schedule: Q01DX001 (ip), vehicle: saline 104 % of control | dose: 80.0 mg/kg/injection, schedule: Q01DX001 (ip), vehicle: saline 106 % of control | [13] 92 % of control

O=[N+]([O-])/C=C\c1cc(Cl)c(/C=C/[N+](=O)[O-])c(Cl)c1Cl
inactive: dose: 2.5 mg/kg/injection, schedule: Q01DX009 (ip), vehicle: saline 88 % of control | dose: 10.0 mg/kg/injection, schedule: Q01DX001 (ip), vehicle: acetone 89 % of control | dose: 10.0 mg/kg/injection, schedule: Q04DX003 (ip), vehicle: acetone 91 % of control | dose: 20.0 mg/kg/injection, schedule: Q01DX001 (ip), vehicle: acetone 94 % of control | dose: 20.0 mg/kg/injection, schedule: Q04DX003 (ip), vehicle: acetone 101 % of control

CCCCCCNP(=O)(OCC)OCC
inactive: [1] 95 % of control | [3] 93 % of control | [14] 101 % of control

CC12CC3CC1C2C3OC=O (stereo not given)
inactive: [1] 90 % of control | [3] 95 % of control | [14] 95 % of control | [15] 101 % of control

NC(N)=N/N=C/c1ccc(Cl)c([N+](=O)[O-])c1
inactive: dose: 6.0 mg/kg/injection, schedule: Q01DX Z (oral), vehicle: methylcellulose (MC) 93 % of control | dose: 15.0 mg/kg/injection, schedule: Q01DX Z (oral), vehicle: methylcellulose (MC) 115 % of control | dose: 30.0 mg/kg/injection, schedule: Q01DX Z (oral), vehicle: methylcellulose (MC) 109 % of control | dose: 120.0 mg/kg/injection, schedule: Q01DX Z (oral), vehicle: methylcellulose (MC) 96 % of control

N#CCCC(C#N)(CCC#N)c1ccc([N+](=O)[O-])cc1
inactive: dose: 100.0 mg/kg/injection, schedule: Q01DX009 (ip), vehicle: saline with Tween-80 102 % of control | [7] 98 % of control | dose: 200.0 mg/kg/injection, schedule: Q01DX009 (ip), vehicle: saline with Tween-80 107 % of control | [8] 98 % of control | dose: 400.0 mg/kg/injection, schedule: Q01DX009 (ip), vehicle: saline with Tween-80 98 % of control | [9] 98 % of control

C/C(=N/OC(=O)N(C)C)c1cccs1
inactive: dose: 5.0 mg/kg/injection, schedule: Q01DX001 (ip), vehicle: other 103 % of control | dose: 10.0 mg/kg/injection, schedule: Q01DX001 (ip), vehicle: other 94 % of control | dose: 20.0 mg/kg/injection, schedule: Q01DX001 (ip), vehicle: other 97 % of control | dose: 40.0 mg/kg/injection, schedule: Q01DX001 (ip), vehicle: other 92 % of control

CCN(CC)c1ccc(/C=N\N(C)C)cc1
inactive: dose: 50.0 mg/kg/injection, schedule: Q01DX009 (ip), vehicle: Klucel (hydroxypropylcellulose) (HPC) 97 % of control | dose: 100.0 mg/kg/injection, schedule: Q01DX009 (ip), vehicle: Klucel (hydroxypropylcellulose) (HPC) 101 % of control | dose: 200.0 mg/kg/injection, schedule: Q01DX009 (ip), vehicle: Klucel (hydroxypropylcellulose) (HPC) 106 % of control

CCN(CC)C(=O)c1cccc(COc2ccc(N3C(N)=NC(N)=NC3(C)C)cc2Cl)c1
inactive: dose: 25.0 mg/kg/injection, schedule: Q01DX009 (ip), vehicle: saline with Tween-80 107 % of control | dose: 50.0 mg/kg/injection, schedule: Q01DX009 (ip), vehicle: saline with Tween-80 107 % of control

NCCc1cn(C2OC(CO)C(O)C(O)C2O)c2ccccc12 (stereo not given)
inactive: dose: 25.0 mg/kg/injection, schedule: Q01DX005 (ip), vehicle: saline 96 % of control and 106 % of control | dose: 50.0 mg/kg/injection, schedule: Q01DX005 (ip), vehicle: saline 96 % of control | dose: 100.0 mg/kg/injection, schedule: Q01DX005 (ip), vehicle: saline 109 % of control and 87 % of control

CCC(=O)c1ccc(O)cc1
inactive: dose: 100.0 mg/kg/injection, schedule: Q04DX003 (ip), vehicle: Klucel (hydroxypropylcellulose) (HPC) 102 % of control | dose: 200.0 mg/kg/injection, schedule: Q04DX003 (ip), vehicle: Klucel (hydroxypropylcellulose) (HPC) 102 % of control | dose: 400.0 mg/kg/injection, schedule: Q04DX003 (ip), vehicle: Klucel (hydroxypropylcellulose) (HPC) 102 % of control

CC1([N+](=O)[O-])COP(=O)(OP2(=O)OCC(C)([N+](=O)[O-])CO2)OC1 (stereo not given)
inactive: [3] 108 % of control | [14] 101 % of control | [15] 103 % of control

CCC1CN1C(=O)c1ccc(OP(=O)(N2CC2CC)N2CC2CC)cc1 (stereo not given)
inactive: dose: 50.0 mg/kg/injection, schedule: Q01DX001 (ip), vehicle: saline 102 % of control | [13] 102 % of control | [16] 105 % of control | [17] 102 % of control

CCOC(=O)/C(C)=N/Nc1nn[nH]n1
inactive: [5] 99 % of control | [6] 99 % of control | dose: 400.0 mg/kg/injection, schedule: Q04DX003 (ip), vehicle: saline 86 % of control

CC(C)C(C)(C)NC(N)=O
inactive: [13] 102 % of control | [16] 104 % of control | [17] 104 % of control

CCCC(=O)CC(C)=O.CCCC(=O)CC(C)=O.[Cu]
inactive: dose: 5.0 mg/kg/injection, schedule: Q04DX003 (ip), vehicle: Klucel (hydroxypropylcellulose) (HPC) 95 % of control | dose: 6.0 mg/kg/injection, schedule: Q01DX009 (ip), vehicle: Klucel (hydroxypropylcellulose) (HPC) 92 % of control | dose: 10.0 mg/kg/injection, schedule: Q04DX003 (ip), vehicle: Klucel (hydroxypropylcellulose) (HPC) 98 % of control | dose: 12.0 mg/kg/injection, schedule: Q01DX009 (ip), vehicle: Klucel (hydroxypropylcellulose) (HPC) 101 % of control | dose: 20.0 mg/kg/injection, schedule: Q04DX003 (ip), vehicle: Klucel (hydroxypropylcellulose) (HPC) 96 % of control | dose: 40.0 mg/kg/injection, schedule: Q04DX003 (ip), vehicle: Klucel (hydroxypropylcellulose) (HPC) 93 % of control

CC(=O)c1c(C)n(C)c2ccccc12
inactive: dose: 100.0 mg/kg/injection, schedule: Q01DX001 (ip), vehicle: saline with Tween-80 103 % of control | [10] 95 % of control | [7] 95 % of control | dose: 200.0 mg/kg/injection, schedule: Q01DX001 (ip), vehicle: saline with Tween-80 101 % of control | [11] 98 % of control | [8] 92 % of control | dose: 400.0 mg/kg/injection, schedule: Q01DX001 (ip), vehicle: saline with Tween-80 103 % of control | [12] 109 % of control | [9] 93 % of control

CC(=O)N/N=C(/C)C1CC2CCC1C2 (stereo not given)
inactive: [13] 104 % of control | [16] 106 % of control | [17] 112 % of control

CCN(C1CCCCC1)C1CCCCC1
inactive: dose: 25.0 mg/kg/injection, schedule: Q01DX009 (ip), vehicle: saline 100 % of control | [2] 98 % of control | [4] 107 % of control

O=C[CH2][Hg][Cl]
inactive: dose: 0.78 mg/kg/injection, schedule: Q01DX009 (ip), vehicle: saline with Tween-80 96 % of control | dose: 1.56 mg/kg/injection, schedule: Q01DX009 (ip), vehicle: saline with Tween-80 96 % of control | dose: 3.13 mg/kg/injection, schedule: Q01DX009 (ip), vehicle: saline with Tween-80 93 % of control
